Laboratory results: PubChem BioAssay (NCI)
Several values for one entry are separate records, joined by “and”; a condition that tells them apart may be missing. Equal values may be shown once.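 Where inhibition never reached the appropriate level, the endpoint shown equals the highest concentration tested. Otherwise, values were interpolated linearly from a five-concentration, 48-hour dose response in 96-well plates. GI50 is the concentration that inhibits growth by half. The concentration for full growth arrest is given as TGI.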

Key:
Test in all cases: NCI anticancer screen, dose series, 48 h
HCT-116 colon = tested on: HCT-116 colon
RXF 393 renal = tested on: RXF 393 renal
U251 CNS = tested on: U251 CNS
SK-MEL-2 melanoma = tested on: SK-MEL-2 melanoma
SK-MEL-28 melanoma = tested on: SK-MEL-28 melanoma
A549 NSCLC = tested on: A549 NSCLC
RPMI-8226 leukemia = tested on: RPMI-8226 leukemia
OVCAR-4 ovarian = tested on: OVCAR-4 ovarian
SW-620 colon = tested on: SW-620 colon
HCC-2998 colon = tested on: HCC-2998 colon

| Structure (SMILES) | TGI (HCT-116 colon) | TGI (RXF 393 renal) [µM] | TGI (U251 CNS) [µM] | TGI (SK-MEL-2 melanoma) | TGI (SK-MEL-28 melanoma) [µM] | TGI (A549 NSCLC) [µM] | TGI (RPMI-8226 leukemia) | TGI (OVCAR-4 ovarian) | TGI (SW-620 colon) [µM] | TGI (HCC-2998 colon) | GI50 (HCT-116 colon) | GI50 (RXF 393 renal) [µM] | GI50 (U251 CNS) | GI50 (SK-MEL-28 melanoma) [µM] | GI50 (A549 NSCLC) [µM] | GI50 (RPMI-8226 leukemia) | GI50 (OVCAR-4 ovarian) [µM] | GI50 (SW-620 colon) | GI50 (HCC-2998 colon) [µM] | GI50 (SK-MEL-2 melanoma) [µM] |
| --- | --- | --- | --- | --- | --- | --- | --- | --- | --- | --- | --- | --- | --- | --- | --- | --- | --- | --- | --- | --- |
| OC1CN(OC/C=C/c2ccccc2)CC(O)C1O (centres undefined) | > 100 µM | > 100 | > 100 | > 100 µM | > 100 | > 100 | > 100 µM | > 100 µM | > 100 | > 100 µM | – | – | – | – | – | – | – | – | – | – |
| COc1cc2c(cc1OCCCCNC(=O)c1cc3ccccc3[nH]1)N=CC1CCCN1C2=O (centres undefined) | > 100 µM | 6.28 | > 100 | – | > 100 | > 100 | 96.3 µM | 94.4 µM | 67.6 | 45.1 µM | 35.9 µM | 2.35 | 10.5 µM | 37.5 | 28.3 | 5.67 µM | 28.2 | 9.84 µM | 16.6 | – |
| COc1ccc(Nc2c3ccccc3nc3c2c2ccccc2n3C)cc1 | > 100 µM | > 100 | > 100 | > 100 µM | > 100 | > 100 | 24.7 µM | – | > 100 | – | 30 µM | 64.9 | 36.5 µM | > 100 | 17.8 | 3.77 µM | – | 41.7 µM | – | 57.6 |
| COc1ccc2c(=O)c([Se]c3coc4cc(OC)ccc4c3=O)coc2c1 | 44.1 µM | > 100 | > 100 | > 100 µM | > 100 | > 100 | > 100 µM | > 100 µM | > 100 | > 100 µM | – | – | – | – | – | – | – | – | – | – |
| NC(=O)c1ccccc1NC(=O)C(=O)C(C(=O)c1ccc2ccccc2c1)C1OC(=O)c2ccccc21 (centres undefined) | 23 µM | 16.8 | 25.2 | 33.2 µM | – | 50.5 | 48.1 µM | 32.9 µM | 27.9 | 20.1 µM | – | – | – | – | – | – | – | – | – | – |
| N/C(=N\O)c1ncc(-c2ccc(C(F)(F)F)cc2)c(NC2CCCCCC2)n1 | 11.9 µM | 11.6 | 7.51 | – | 19 | 11.1 | 9.54 µM | 15 µM | 15.4 | 14.3 µM | 3.95 µM and 1.41 µM | 2.74 | 4.35 µM and 1.83 µM | 5.38 | 2.34 | 8.66 µM and 2.66 µM | 2.72 | 4.92 µM and 3.88 µM | 3.92 | – |
| CCCCCCCCCCCCCCCCOC(=O)C(C(=O)OCCCCCCCCCCCCCCCC)[N+](C)(C)CCOC(C)=O | 33.1 µM | 8.98 | 27 | 36.8 µM | 40.8 | 42.6 | – | 32.4 µM | 52.4 | 30.7 µM | – | – | – | – | – | – | – | – | – | – |
| CC/C(=N\Nc1nc2ccccc2n1C)c1ccccn1 | 11.8 µM | 1.41 | 11 | 14.9 µM | 13.5 | 11.4 | 6.29 µM | 4.68 µM | 15 | 7.23 µM | < 0.01 µM | 0.193 | 0.0863 µM | 0.214 | 0.103 | 0.033 µM | < 0.0185 | 0.0393 µM | 0.314 | 0.589 |
| O=C(Nc1cccc(Cl)c1)Nc1cccc(Cl)c1 | – | > 92.8 | > 100 | > 100 µM | > 100 | – | – | > 100 µM | – | – | – | 24.1 | 7.05 µM | > 100 | – | – | 1.99 | – | – | > 21.5 |
| O=S(=O)(NCCNc1nccc(-c2c(-c3cccc(O)c3)nc3sccn23)n1)c1ccc(F)cc1 | 27.1 µM | 12.5 | 49.3 | 20.2 µM | 24 | 36.1 | 22.7 µM | 41.3 µM | 36.9 | 25.7 µM | 3.26 µM | 2.44 | 7.48 µM | 0.66 | 3.51 | 4.26 µM | 6.5 | 5.95 µM | 10.2 | 4.49 |
| COc1ccc(/C=C/c2cc(OC)c(O[Si](C)(C)C(C)(C)C)c(OC)c2)cc1 | > 100 µM | – | > 100 | > 100 µM | 86.6 | > 100 | > 100 µM | > 100 µM | > 100 | > 100 µM | – | – | – | – | – | – | – | – | – | – |
| CN(C)CCNC(=O)c1cccc2nc3ccc4ccccc4c3nc12 | 0.205 µM | 0.198 | 0.665 | 0.335 µM | 1.05 | 0.253 | – | 1.02 µM | 0.313 | 0.282 µM | – | – | – | – | – | – | – | – | – | – |
| CCCNc1nc(N(C)O)nc(N(C)O)n1 | > 53.8 µM | > 62 | > 100 | 7.76 µM | > 91 | > 100 | 4.46 µM | > 100 µM | > 100 | > 100 µM | 1.63 µM | 2.96 | 0.955 µM | 2.64 | 1.8 | 0.689 µM | 2.48 | 3.46 µM | 3.04 | 2.59 |
| Cc1cc2c3ccccc3n(C)c2c2c1C(=O)c1ccccc1C2=O | 32.4 µM | – | – | 41.3 µM | 65 | 58 | – | 51.4 µM | > 100 | 43.6 µM | – | – | – | – | – | – | – | – | – | – |
| CC1=C(N2CC2)C(=O)C(CO)=C(N2CC2)C1=O | 0.0392 µM and 0.336 µM | 0.0946 | 0.285 | 0.0988 µM and 0.585 µM | 0.228 | – | 0.0147 µM and 0.0824 µM | 0.904 µM and 0.587 µM | – | 0.511 µM and 0.29 µM | 0.00728 µM | – | – | – | – | 0.00102 µM | 0.195 | 0.00368 µM | 0.111 | – |
| COC(=O)/C(C#N)=C\N1CCN(C(=O)c2ccco2)C1=S | 16 µM | 7.71 | 37 | 8.39 µM | 79.6 | 37.7 | 62.4 µM | 58.8 µM | 19.7 | – | 3.95 µM | 3.1 | 6.78 µM | 13 | 14.6 | 3.3 µM | 23.3 | 5.2 µM | – | 2.94 |
| COc1ccc(CN2c3ccccc3Sc3ccccc32)cc1F | > 100 µM | – | > 100 | > 100 µM | > 100 | > 100 | > 100 µM | > 100 µM | > 100 | > 35.8 µM | 0.437 µM | – | 0.561 µM | > 55 | 0.675 | 0.483 µM | 0.964 | 0.398 µM | 1.11 | 0.476 |
